We go through 2 compounds from US20230346831A1, “METHODS FOR TREATING […] USING LOW DOSE CARBON MONOXIDE” (priority 2020, published 2023).

Entries after “also recorded” stand apart in the source; their conditions may differ.

What all share (format): cell-based, human
Settings in all cases: 16 hours

One assay relates to 8988T cells. The assay can be described thus: in vitro transwell migration assay. An excerpt:
(§1) MDA-MB-231/TGL cell lines was obtained from Dr. Joan Massagué (Minn, et al, J. Clin. Invest., 115:(1), 44-55 (2005)). CM cell line was obtained from Dr. Paolo Pozzilli (S. Kobayashi et al., Oncogenesis 8, 16 (2019)). MCF7 breast cancer cells and 8988T pancreatic cancer cells were infected with viruses carrying thymidine kinase/green fluorescent protein/luciferase fusion reporter (TGL), which was obtained from Drs. Inna Serganova and Ronald Blasberg (V. Ponomarev et al., European journal of nuclear medicine and molecular imaging 31, 740-751 (2004)). GFP-positive MCF7/TGL and […] cells were enriched by fluorescence-activated cell sorting. H1975, lung adenocarcinoma cell line, was obtained from ATCC (Manassas, VA). MCF7/TGL/pQ and MCF7/TGL/HA-Bcl-xL cell lines were generated by infecting MCF7/TGL cells with viruses carrying pQXCIP or pQXCIP-HA-Bcl-xL, and selected in the medium containing 0.5-1 µg/ml puromycin. Human CYP1B1cDNA (GeneScript) was transiently transfected into MCF7/TGL, MDA-MB-231/TGL, and 8988T/TGL with Lipofectamine 3000 according to the manufacture’s protocol (Invitrogen, Carlsbad, CA). Cells were treated with CO at 250 ppm for 16 hours. Control air condition was a regular cell culture incubator with 5% CO2. Cells were also treated with 30 µM Hemin (HY-19424, MedChemExpress, Monmouth Junction, NJ) in standard tissue culture incubator or 250 ppm CO.
(§2) 6.5 mm Transwell with 8.0 µm Pore Polycarbonate Membrane Insert (Corning, NY, Cat. No. 3422) was used for the cell migration assay (FIG. 1J). After 16 hours of incubation, cells migrated to the opposite side of the upper chambers were fixed with 4% paraformaldehyde, stained with 0.2% crystal violet for 30 min and counted in five fields under × 20 magnification. In parallel, cells were seeded on 24-well plates for proliferation assay. Cells for proliferation control were fixed with 4% paraformaldehyde, stained with 0.2% crystal violet for 30 min and lysed with methanol to release the crystal violet as described by M. Feoktistova, P. Geserick, & M. Leverkus, Cold Spring Harb Protoc 2016, pdb prot087379 (2016). The optical density was measured at 595 nm (OD595). To supplement heme/hemin in the transwell migration assay, 30 µM hemin (MedChemExpress, Monmouth Junction, NJ, Cat. No. HY-19424) was added to both the cell suspension in the upper chambers and the bottom wells.
(§3) To examine whether CO has an effect on tumor cell migration, in vitro transwell migration assays were performed. Various human cancer cell lines, including 3 types of breast cancer (ER^+: MCF7 cells, HER2^+: HCC1954 cells, triple-negative breast cancer (TNBC): MDA-MB-231 cells), pancreatic ductal adenocarcinoma (PDAC) (8988T cells), pancreatic neuroendocrine tumor (PNET) (CM cells), colon cancer (SW480 cells), prostate cancer (22Rv1 cells), liver cancer (HepG2 cells), and lung cancer (H1975 cells) were seeded in the upper chamber of 8-µm porous polycarbonate membranes. Cell migration through the transwell membrane along a serum gradient (Table 1) after 16 hours in the presence or absence of 250 ppm CO were measured.

The subject of another assay is H1975 cells. The assay can be described thus: in vitro transwell migration assay.
Excerpt: as §1, §2, §3

For a further assay, the system named is SW480 cells. As to the kind of experiment: in vitro transwell migration assay.
Excerpt: as §1, §2, §3

For another assay, the system named is MCF7 cells. As to the kind of experiment: in vitro transwell migration assay.
Excerpt: as §1, §2, §3

For a further assay, the system named is CM cells. As to the kind of experiment: in vitro transwell migration assay.
Excerpt: as §1, §2, §3

The subject of a further assay is HCC1954 cells. The assay can be described thus: in vitro transwell migration assay.
Excerpt: as §1, §2, §3

The subject of another assay is 22Rv1 cells. The assay can be described thus: in vitro transwell migration assay.
Excerpt: as §1, §2, §3

In another assay the test system is HepG2 cells. As to the kind of experiment: in vitro transwell migration assay.
Excerpt: as §1, §2, §3

In assay [1] the test system is cancer cells across different cancer types. The assay can be described thus: in vitro transwell migration assay, statements across cancer types. On the procedure:
Migration of different cancer cells under control air or 250 ppm CO treatment with or without supplement of 30 µM hemin was determined using in vitro transwell migration chamber with a serum gradient. Indicated cell lines were seeded into the transwell inserts. 16 hours later, cells on the top of the upper chambers were removed, and cells on the bottom surface of the transwell inserts were fixed, stained with crystal violet, and counted from eight randomly picked fields in three independent experiments. Error bars represent SEM. *: P < 0.05, two-sided t-test. Scale bar, 100 µm. […]
6.5 mm Transwell with 8.0 µm Pore Polycarbonate Membrane Insert (Corning, NY, Cat. No. 3422) was used for the cell migration assay (FIG. 1J). After 16 hours of incubation, cells migrated to the opposite side of the upper chambers were fixed with 4% paraformaldehyde, stained with 0.2% crystal violet for 30 min and counted in five fields under × 20 magnification. […] The optical density was measured at 595 nm (OD595). […]
To investigate whether 250 ppm CO induces hypoxia, HiF1α protein levels in low-dose CO-treated MCF7/TGL and MDA-MB-231/TGL cells were examined. […] To assess the intracellular heme levels affected by low-dose CO treatment, oxidized heme levels in the form of hemin (Fe^3+ state) were measured because free heme (Fe^2+ state) is readily oxidized and cannot be measured. […]

The mark [2] stands for this setting: 250 ppm CO, serum gradient, vs control air.
The mark [3] stands for this setting: 30 µM hemin in upper and lower chambers + 250 ppm CO.

Consider `[C-]#[O+]` [CO, Carbon monoxide], for which the “cell migration through the transwell membrane” value in the assay with 8988T cells (setting [2]) is reported as “significantly reduced”; with H1975 cells (setting [2]) it was “significantly reduced”; in the assay on SW480 cells (setting [2]), “significantly reduced”; in the assay with MCF7 cells (MCF7 cells, 250 ppm CO, serum gradient, vs control air), “significantly reduced”; with CM cells (setting [2]), “significantly reduced”; in the assay with HCC1954 cells (setting [2]), “significantly reduced”. In addition, the “cell migration through the transwell membrane” value in the assay on 22Rv1 cells (setting [2]) and in the assay with HepG2 cells (setting [2]) was “significantly reduced” in each case. Further, the “cancer cell migration across different cancer types” value in assay [1] (250 ppm CO, transwell with serum gradient, vs control air) is given as “decreases”.

Take Hemin [reference compound]: the “cell migration inhibited by 250 ppm CO (reversal by hemin)” value with 8988T cells (setting [3]) is “significantly reversed”; in the assay on H1975 cells (setting [3]), “significantly reversed”; in the assay with SW480 cells (setting [3]) it was “significantly reversed”; in the assay on MCF7 cells (MCF7/TGL cells, 30 µM hemin in upper and lower chambers + 250 ppm CO), “significantly reversed”; in the assay on CM cells (setting [3]), “significantly reversed”; in the assay with HCC1954 cells (setting [3]), “significantly reversed”. Moreover, the “cell migration inhibited by 250 ppm CO (reversal by hemin)” value in the assay with 22Rv1 cells (setting [3]) and in the assay with HepG2 cells (setting [3]) was “significantly reversed” in each case. In addition, the “cell migration inhibited by CO (rescue by hemin supplement)” value in assay [1] (30 µM hemin + 250 ppm CO, transwell, cell lines not named at the place (FIGS. 1A-1I; 1C-1E)) is on record as “partially restored; also recorded: rescued”.
